The structures appear in SMILES notation.

Format in all cases: in vivo
Assay [1] relates to Myzus persicae. Put plainly: Myzus persicae spray test (Chinese cabbage leaf discs). As to conditions: foliar, 120 h, 500 g/ha, after 5-6 days, read-out: efficacy. The procedure, abridged:
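Chinese cabbage leaf discs infested with all stages of green peach aphid were sprayed with compound formulated in acetone/DMF and emulsifier-containing water. Efficacy in % was scored after 5-6 days, with 100% meaning all aphids killed and 0% none killed.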

Assay [2] concerns Myzus persicae. Description: Myzus persicae oral test. As to conditions: 120 h, 20 ppm, oral uptake, after 5 days, read-out: efficacy. The procedure, abridged:
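Compound dissolved in acetone, diluted in water, then mixed 50:150 μl with IPL41 insect medium (33%+15% sugar). Mixed-population green peach aphids feed through a parafilm seal on the solution; mortality scored as % efficacy after 5 days (100% = all killed).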

The next assay relates to Lucilia cuprina. Description: Lucilia cuprina test. As to conditions: 48 h, L1 larvae, after 2 days, read-out: efficacy (kill in %). As for the experimental part:
Lucilia cuprina Test Solvent: dimethyl sulphoxide To produce a suitable preparation of active compound, 10 mg of active compound are mixed with 0.5 ml of dimethyl sulphoxide, and the concentrate is diluted with water to the desired concentration. About 20 L1 larvae of the Australian sheep blowfly (Lucilia cuprina) are transferred into a test vessel containing minced horsemeat and the active compound preparation of the desired concentration. After 2 days, the kill in % is determined. 100% means that all the larvae have been killed; 0% means that no larvae have been killed.

The next assay has as its system Phaedon cochleariae. Description: Phaedon cochleariae spray test. As to conditions: foliar, 168 h, Chinese cabbage leaf discs, larvae, after 7 days, read-out: efficacy. In short, it runs like this:
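Compound dissolved in solvent and diluted with water containing 1000 ppm emulsifier to test concentrations. Efficacy read after 7 days as % beetle larvae killed (100% all killed, 0% none).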

A further assay deals with Meloidogyne incognita. Description: Meloidogyne incognita test. The following applies: 336 h, lettuce, after 14 days, read-out: nematicidal efficacy (formation of galls). The procedure, abridged: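 Active compound in acetone, diluted with water, added to sand-filled vessels with M. incognita eggs/larvae and lettuce seeds. After 14 days, efficacy scored by root gall formation: 100% = no galls, 0% = galls equal to untreated control.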

As to `CCc1ccccc1S(=O)(=O)NC(=O)c1cn(C)c(-c2ncccc2F)n1` [Example 572], the results for the pest or weed control at 500 g/ha in the assay on Myzus persicae [1] and in the assay with Phaedon cochleariae were 100% and 83%, respectively. In the assay on Myzus persicae [2], the pest or weed control at 20 ppm is 100%. The pest or weed control at 100 ppm in the assay on Lucilia cuprina is 100%.
`Cc1cccc(Cl)c1S(=O)(=O)NC(=O)c1cn(C)c(-c2c(F)cccc2F)n1` [Example 364]: the pest or weed control at 500 g/ha with Myzus persicae [1] and in the assay on Phaedon cochleariae was 100% each time. Besides, the pest or weed control at 20 ppm in the assay on Myzus persicae [2] and in the assay with Meloidogyne incognita was 100% in each case. Moreover, the pest or weed control at 100 ppm with Lucilia cuprina amounted to 100%.
Take `CSc1ccccc1S(=O)(=O)NC(=O)c1cn(C)c(-c2c(F)cccc2F)n1` [Example 383]: the pest or weed control at 500 g/ha with Myzus persicae [1] and in the assay on Phaedon cochleariae was 100% in each case. In addition, the pest or weed control at 20 ppm with Myzus persicae [2] came to 100%. Further, the pest or weed control at 100 ppm in the assay with Lucilia cuprina is 100%.
As for `Cn1cc(C(=O)NS(=O)(=O)c2ccccc2Cl)nc1-c1ncccc1Cl` [Example 539], the pest or weed control at 500 g/ha in the assay with Myzus persicae [1] was found to be 90%. Also, the pest or weed control at 20 ppm in the assay on Myzus persicae [2] came out at 100%. Moreover, in the assay on Lucilia cuprina, the pest or weed control at 100 ppm was 100%.
For `Cn1cc(C(=O)NS(=O)(=O)c2ccccc2I)nc1-c1c(F)cccc1F` [Example 120], the pest or weed control at 500 g/ha in the assay with Myzus persicae [1] and in the assay with Phaedon cochleariae was 100% each time. Also, the pest or weed control at 20 ppm with Myzus persicae [2] is 100%; in the assay on Meloidogyne incognita, 90%. The pest or weed control at 100 ppm in the assay with Lucilia cuprina amounted to 100%.
For `Cn1cc(C(=O)NS(=O)(=O)c2cc(Cl)ccc2Cl)nc1-c1ccccc1Cl` [Example 56], the pest or weed control at 500 g/ha in the assay on Myzus persicae [1] and with Phaedon cochleariae was 100% each time. The pest or weed control at 20 ppm in the assay on Myzus persicae [2] worked out at 100%; in the assay on Meloidogyne incognita, 90%. In addition, in the assay on Lucilia cuprina, the pest or weed control at 100 ppm was 100%.
In the case of `COc1ccc(Cl)c(S(=O)(=O)NC(=O)c2cn(C)c(-c3c(F)cccc3F)n2)c1` [Example 92], in the assay with Myzus persicae [1], the pest or weed control at 500 g/ha amounted to 100%. Further, the pest or weed control at 20 ppm in the assay with Myzus persicae [2] was found to be 100%. Moreover, the pest or weed control at 100 ppm in the assay with Lucilia cuprina came to 95%.
For the molecule `CCc1cc(Br)ccc1S(=O)(=O)NC(=O)c1cn(C)c(-c2c(F)cccc2F)n1` [Example 341], the pest or weed control at 500 g/ha in the assay with Myzus persicae [1] was 90%; with Phaedon cochleariae it was 100%. Also, the pest or weed control at 20 ppm in the assay with Myzus persicae [2] and in the assay on Meloidogyne incognita was 100% each time. The pest or weed control at 100 ppm in the assay on Lucilia cuprina came out at 100%.
`Cc1ccc(F)cc1S(=O)(=O)NC(=O)c1cn(C)c(-c2c(F)cccc2F)n1` [Example 397]: the pest or weed control at 500 g/ha in the assay with Myzus persicae [1] and with Phaedon cochleariae was 100% throughout. In addition, the pest or weed control at 20 ppm was 100% in the assay on Myzus persicae [2] and 90% in the assay on Meloidogyne incognita. In addition, the pest or weed control at 100 ppm with Lucilia cuprina turned out to be 100%.
As for `Cc1ccc(Cl)cc1S(=O)(=O)NC(=O)c1cn(C)c(-c2ccccc2Cl)n1` [Example 37], the pest or weed control at 500 g/ha with Myzus persicae [1] was determined as 90%; in the assay with Phaedon cochleariae it was 100%. The pest or weed control at 20 ppm with Myzus persicae [2] and in the assay with Meloidogyne incognita was 100% each time. In the assay with Lucilia cuprina, the pest or weed control at 100 ppm is 100%.
As for `Cc1ccccc1S(=O)(=O)NC(=O)c1cn(C)c(-c2c(F)cccc2F)n1` [Example 27], the pest or weed control at 500 g/ha in the assay on Myzus persicae [1] and in the assay with Phaedon cochleariae was 100% throughout. The pest or weed control at 20 ppm in the assay with Myzus persicae [2] is 100%; with Meloidogyne incognita, 90%. For the same molecule, the pest or weed control at 100 ppm in the assay with Lucilia cuprina turned out to be 100%.
On to `COc1ccc(Br)cc1S(=O)(=O)NC(=O)c1cn(C)c(-c2c(F)cccc2F)n1` [Example 18], for which the pest or weed control at 500 g/ha in the assay with Myzus persicae [1] and in the assay on Phaedon cochleariae was 100% each time. Further, the pest or weed control at 20 ppm in the assay with Myzus persicae [2] stood at 100%; in the assay on Meloidogyne incognita, 90%. Further, in the assay on Lucilia cuprina, the pest or weed control at 100 ppm amounted to 100%.
For `Cn1cc(C(=O)NS(=O)(=O)c2ccccc2C(F)(F)F)nc1-c1c(F)cccc1Cl` [Example 109], in the assay on Myzus persicae [1], the pest or weed control at 500 g/ha stood at 100%. Also, the pest or weed control at 20 ppm with Myzus persicae [2] stood at 100%; in the assay on Meloidogyne incognita, 90%. The pest or weed control at 100 ppm with Lucilia cuprina came out at 100%.
Take `COc1cc(S(=O)(=O)NC(=O)c2cn(C)c(-c3c(F)cccc3F)n2)c(C)cc1Br` [Example 285]: the pest or weed control at 500 g/ha in the assay with Myzus persicae [1] was found to be 90%; in the assay on Phaedon cochleariae, 100%. Also, the pest or weed control at 20 ppm in the assay on Myzus persicae [2] and in the assay with Meloidogyne incognita was 100% throughout. Also, the pest or weed control at 100 ppm with Lucilia cuprina turned out to be 100%.
In the case of `Cc1cccc(C)c1S(=O)(=O)NC(=O)c1cn(C)c(-c2ccccc2Cl)n1` [Example 218], the pest or weed control at 500 g/ha with Myzus persicae [1] and in the assay on Phaedon cochleariae was 100% each time. For the same molecule, the pest or weed control at 20 ppm in the assay on Myzus persicae [2] is 100%; in the assay with Meloidogyne incognita, 90%. The pest or weed control at 100 ppm in the assay with Lucilia cuprina turned out to be 100%.
For the molecule `Cc1cccc(C)c1S(=O)(=O)NC(=O)c1cn(C)c(-c2cccc(Cl)c2Cl)n1` [Example 558], the pest or weed control at 500 g/ha was 90% with Myzus persicae [1] and 100% with Phaedon cochleariae. Further, the pest or weed control at 20 ppm was found to be 100% in the assay with Myzus persicae [2] and 90% with Meloidogyne incognita. Besides, the pest or weed control at 100 ppm in the assay with Lucilia cuprina was 100%.
As for `Cc1ccc(F)cc1S(=O)(=O)NC(=O)c1cn(C)c(-c2ncccc2Cl)n1` [Example 584], the pest or weed control at 500 g/ha in the assay with Myzus persicae [1] and in the assay with Phaedon cochleariae was 100% in each case. Also, the results for the pest or weed control at 20 ppm in the assay on Myzus persicae [2] and with Meloidogyne incognita were 100% and 90%, respectively. Besides, the pest or weed control at 100 ppm in the assay on Lucilia cuprina turned out to be 100%.
Take `Cc1ccccc1S(=O)(=O)NC(=O)c1cn(C)c(-c2cccc(Cl)c2Cl)n1` [Example 519]: the pest or weed control at 500 g/ha was found to be 90% in the assay on Myzus persicae [1] and 100% in the assay on Phaedon cochleariae. For the same molecule, the pest or weed control at 20 ppm with Myzus persicae [2] and in the assay on Meloidogyne incognita was 100% each time. The pest or weed control at 100 ppm in the assay with Lucilia cuprina came to 100%.
On to `COc1ccc(C)c(S(=O)(=O)NC(=O)c2cn(C)c(-c3c(F)cccc3F)n2)c1` [Example 401], for which the pest or weed control at 500 g/ha in the assay with Myzus persicae [1] and with Phaedon cochleariae was 100% throughout. The figures for the pest or weed control at 20 ppm in the assay on Myzus persicae [2] and with Meloidogyne incognita were 100% and 90%, respectively. The pest or weed control at 100 ppm in the assay on Lucilia cuprina is 100%.
Take `Cc1ccccc1S(=O)(=O)NC(=O)c1cn(C)c(-c2ccccc2Cl)n1` [Example 54]: in the assay on Myzus persicae [1], the pest or weed control at 500 g/ha was 100%. Besides, the pest or weed control at 20 ppm in the assay with Myzus persicae [2] and with Meloidogyne incognita was 100% in each case. For the same molecule, in the assay on Lucilia cuprina, the pest or weed control at 100 ppm is 100%.
For the molecule `Cn1cc(C(=O)NS(=O)(=O)c2c(Cl)cccc2Cl)nc1-c1c(Cl)cccc1Cl` [Example 102], the pest or weed control at 500 g/ha in the assay with Myzus persicae [1] and with Phaedon cochleariae was 100% in each case. Besides, the pest or weed control at 20 ppm stood at 100% in the assay on Myzus persicae [2] and 90% in the assay on Meloidogyne incognita. The pest or weed control at 100 ppm in the assay on Lucilia cuprina was determined as 100%.
With `Cn1cc(C(=O)NS(=O)(=O)c2ccccc2C(F)(F)F)nc1-c1c(Cl)cccc1Cl` [Example 23], the pest or weed control at 500 g/ha in the assay on Myzus persicae [1] and in the assay with Phaedon cochleariae was 100% in each case. Also, in the assay with Myzus persicae [2], the pest or weed control at 20 ppm is 100%. The pest or weed control at 100 ppm with Lucilia cuprina worked out at 100%.
As to `Cc1ccccc1S(=O)(=O)NC(=O)c1cc(C)n(-c2ncccc2Cl)n1` [Example 274], in the assay on Myzus persicae [1], the pest or weed control at 500 g/ha is 100%. Besides, the pest or weed control at 20 ppm in the assay with Myzus persicae [2] was found to be 100%; in the assay on Meloidogyne incognita it was 90%. The pest or weed control at 100 ppm in the assay with Lucilia cuprina turned out to be 95%.
With `Cc1cccc(C)c1S(=O)(=O)NC(=O)c1cn(C)c(-c2ncccc2F)n1` [Example 602], the pest or weed control at 500 g/ha in the assay with Myzus persicae [1] came to 90%; in the assay on Phaedon cochleariae, 83%. Also, the pest or weed control at 20 ppm was 100% in the assay with Myzus persicae [2] and 90% in the assay with Meloidogyne incognita.
`Cc1ccccc1S(=O)(=O)NC(=O)c1cn(C)c(-c2c(Cl)cccc2Cl)n1` [Example 25]: the pest or weed control at 500 g/ha in the assay on Myzus persicae [1] amounted to 100%. Further, the pest or weed control at 20 ppm in the assay with Myzus persicae [2] amounted to 100%. For the same molecule, in the assay with Lucilia cuprina, the pest or weed control at 100 ppm came out at 100%.
For the molecule `CCc1ccc(Cl)cc1S(=O)(=O)NC(=O)c1cn(C)c(-c2ncccc2F)n1` [Example 603], the pest or weed control at 500 g/ha with Myzus persicae [1] was 90%; in the assay with Phaedon cochleariae, 100%. Further, the figures for the pest or weed control at 20 ppm in the assay on Myzus persicae [2] and in the assay on Meloidogyne incognita were 100% and 90%, respectively.
For the molecule `Cn1cc(C(=O)NS(=O)(=O)c2ccc(F)cc2C(F)(F)F)nc1-c1c(F)cccc1F` [Example 448], the pest or weed control at 500 g/ha in the assay on Myzus persicae [1] and in the assay with Phaedon cochleariae was 100% in each case. The pest or weed control at 20 ppm in the assay with Myzus persicae [2] turned out to be 100%; in the assay on Meloidogyne incognita it was 90%.
`Cn1cc(C(=O)NS(=O)(=O)c2cccc3ccccc23)nc1-c1c(F)cccc1F` [Example 510]: the pest or weed control at 500 g/ha with Myzus persicae [1] and in the assay with Phaedon cochleariae was 100% in each case. The pest or weed control at 20 ppm with Myzus persicae [2] was 100%; with Meloidogyne incognita it was 90%.

Values taken from patent publication US20200288710A1, “SUBSTITUTED SULPHONAMIDES FOR CONTROLLING ANIMAL PESTS” (BAYER CROPSCIENCE AKTIENGESELLSCHAFT, priority 2016, published 2020).
